The values below come from US20250332276A1, “Inhibitors of Molluscum Contagiosum Infection and Methods Using the Same” (priority 2022, published 2025).

In data set [1] the target is T1, mD4 (Molluscum contagiosum virus, UniProt Q98260). Kind of data set: mD4 dependent processive DNA synthesis in vitro (mD4 anti-processivity). Type of data set: biochemical.
The nature of data set [2]: 3-Day Cell Viability Assay (cytotoxicity).
Data set [3] concerns the target T1, mD4. Put plainly: Micro-Scale Thermophoresis binding to mD4. The conditions noted are these: microscale thermophoresis. (In MST a laser heats a spot of the sample, and binding alters the fluorescence response.)
In another data set the target is mD4 (mD4+A20+Pol) (Molluscum contagiosum virus subtype 1, UniProt Q98260). Put plainly: biochemical.
mD4 (mD4+A20+Pol), sequence (Q98260 1-226): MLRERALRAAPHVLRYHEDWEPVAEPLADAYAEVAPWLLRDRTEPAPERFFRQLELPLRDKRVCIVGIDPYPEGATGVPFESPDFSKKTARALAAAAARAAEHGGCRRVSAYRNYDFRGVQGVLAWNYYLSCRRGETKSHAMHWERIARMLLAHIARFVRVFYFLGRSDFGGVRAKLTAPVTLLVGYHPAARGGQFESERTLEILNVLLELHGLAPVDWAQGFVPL
Setting [4] is: Table 2, read-out: IC50 (μM), mD4 anti-processivity activity.

The IC50 is the midpoint of a concentration-inhibition curve. Usually CC50 stands for the concentration giving 50% cytotoxicity. For orientation: Kd means the constant that tells how readily two partners part at equilibrium.

Molecules are shown by their SMILES. Read-outs that look alike come from different tables or passages of the source. *1 amine or outer side, *2 acyl side, *3 side chain or, on linkers, in order; H or OH if unused. Where a SMILES comes first, the peptide text is derived from it. The star is where a group is joined. X1 = CCC(C(=O)Nc1sc(C(=O)*)c(C)c1C(=O)OC)c1ccc(C(F)(F)F)cc1; Ethylenediamine = C(CN[*:2])N[*:1]; Boc = CC(C)(C)OC(=O)*

T1 sequence (Q98260 1-226): as above

Turning to `CCC(C(=O)Nc1sc(C(=O)NCCNC(=O)[C@H](NC(=O)[C@H](NC(=O)[C@H](N)C(C)C)C(C)C)C(C)C)c(C)c1C(=O)OC)c1ccc(F)cc1` (stereo partly drawn) [Compound 20, Methyl 5-((2-((R)-2-((R)-2-((R)-2-amino-3-methylbutanamido)-3-methylbutanamido)-3-methylbutanamido)ethyl)carbamoyl)-2-(2-(4-fluorophenyl)butanamido)-4-methylthiophene-3-carboxylate], the IC50 on mD4 [1] (setting [4]) came to 3 µM.

As to `CCC(C(=O)Nc1sc(C(=O)NCCNC(=O)[C@@H](NC(=O)[C@@H](NC(=O)[C@@H](NC(=O)OC(C)(C)C)C(C)C)C(C)C)C(C)C)c(C)c1C(=O)OC)c1ccc(F)cc1` (stereo partly drawn) [Compound 8, Methyl 2-(2-(4-fluorophenyl)butanamido)-4-methyl-S-(((6S,9S,12S)-6,9,12-triisopropyl-2,2-dimethyl-4,7,10,13-tetraoxo-3-oxa-5,8,11,14-tetraazahexadecan-16-yl)carbamoyl)thiophene-3-carboxylate], at mD4 [1] (setting [4]), the IC50 came out at 10.7 µM.

For `CCC(C(=O)Nc1sc(C(=O)NCCNC(=O)[C@@H](NC(=O)[C@@H](NC(=O)[C@@H](N)C(C)C)C(C)C)C(C)C)c(C)c1C(=O)OC)c1ccc(F)cc1` (stereo partly drawn) [Compound 9, Methyl 5-((2-((S)-2-((S)-2-((S)-2-amino-3-methylbutanamido)-3-methylbutanamido)-3-methylbutanamido)ethyl)carbamoyl)-2-(2-(4-fluorophenyl)butanamido)-4-methylthiophene-3-carboxylate], the CC50 at 3 day in data set [2] was greater than 100 µM. For the same molecule, in data set [2] (cell viability assay or seen when evaluated in mD4-VV infection), the “cytotoxicity, result in words” value is “no measurable cytotoxicity”. Also, the IC50 at mD4 [1] (read-out: IC50, mD4 dependent processive DNA synthesis in vitro) is 5 µM; against mD4 (mD4+A20+Pol), 5.6 µM. On mD4 [3], this molecule registered a dissociation constant (Kd) of 2840 nM.

For the molecule `CC(C)[C@H](N)C(=O)N[C@H](C(=O)N[C@H](C(=O)O)C(C)C)C(C)C` [TriVal-Peptide Control, ((L)-Val)3, reference compound] (H-Val-Val-Val-OH), the concentration for half-maximal inhibition (IC50) on mD4 (mD4+A20+Pol) was greater than 100 µM.

Take `CCC(C(=O)Nc1sc(C(=O)NCCNC(=O)[C@@H](NC(=O)[C@@H](NC(=O)[C@@H](NC(=O)[C@@H](NC(=O)OC(C)(C)C)C(C)C)C(C)C)C(C)C)C(C)C)c(C)c1C(=O)OC)c1ccc(C(F)(F)F)cc1` (stereo partly drawn) [Compound 26, Methyl 4-methyl-5-(((6S,9S,12S,15S)-6,9,12,15-tetraisopropyl-2,2-dimethyl-4,7,10,13,16-pentaoxo-3-oxa-5,8,11,14,17-pentaazanonadecan-19-yl)carbamoyl)-2-(2-(4-(trifluoromethyl)phenyl)butanamido)thiophene-3-carboxylate] (Boc-VVVV-{Ethylenediamine-X1}): the IC50 at mD4 [1] (setting [4]) came out at 4.1 µM.

As for `CCC(C(=O)Nc1sc(C(=O)NCCNC(=O)[C@@H](NC(=O)[C@@H](NC(=O)OC(C)(C)C)C(C)C)C(C)C)c(C)c1C(=O)OC)c1ccc(F)cc1` (stereo partly drawn) [Compound 5, Methyl 5-(((6S,9S)-6,9-diisopropyl-2,2-dimethyl-4,7,10-trioxo-3-oxa-5,8,11-triazatridecan-13-yl)carbamoyl)-2-(2-(4-fluorophenyl)butanamido)-4-methylthiophene-3-carboxylate], on mD4 [1] (setting [4]), the IC50 was found to be 20 µM.
